Experimental data taken from patent US7825139B2, “Compounds and methods for selective inhibition of dipeptidyl peptidase-IV” (Forest Laboratories Holdings Limited (BM), priority 2005, dated 2010).

Assays:
[1] = target: T1, DPP-VII (Homo sapiens, UniProt Q9UHL4); test: DPP-VII IC50 assay (Lys-Pro AMC), selectivity versus DPP-IV; assay type: biochemical; settings: IC50 of DPP-VII divided by IC50 for DPP-IV
T1 construct: The full length cDNAs for human DPP-VII, DPP-VIII, DPP-IX, and FAP were obtained from Open Biosystems; FLAG (N); made in house
Description: (§1) The term “selectivity ratio” refers to the IC50 value generated in a biochemical assay measuring inhibition of DPP-IV compared to the IC50 value generated in a biochemical assay measuring inhibition of another DPP family member (e.g. DPP-VII, DPP-VIII, DPP-IX or FAP) whereby the ratio is obtained by dividing the IC50 value of DPP-VII, DPP-VIII, DPP-IX or FAP by the IC50 value for DPP-IV.
(§2) Materials. S9 insect cells and Sf-900 II SFM media were from Invitrogen. Anti-FLAG M2 immunoaffinity gel was from Sigma. Gly-Pro-AMC, Lys-Pro AMC, and Ala-Pro AMC were from Enzyme Systems. IC50 calculations were performed by non-linear regression analysis using Prism software (GraphPad). Preparation of DPP-VII, DPP-VIII, DPP-IX, and FAP baculovirus constructs. The full length cDNAs for human DPP-VII, DPP-VIII, DPP-IX, and FAP were obtained from Open Biosystems. […] Baculovirus was prepared using the Bac-to-Bac Baculovirus Expression System (Invitrogen). The cDNAs in the final baculovirus constructs were sequence verified. Baculovirus expression. […] Infection with DPP-VII, DPP-VIII, DPP-IX, and FAP baculoviral constructs were all performed at an MOI of 4. The infected cells were grown for 48 hours and the cell pellets harvested and frozen until purification. DPP-VII was purified using anti-FLAG immunoaffinity gel according to the manufacturer's instructions. DPP-VIII, DPP-IX, and FAP were purified using a B-PER 6xHis Fusion Protein Column Purification Kit from Pierce. IC50 assay. Recombinant DPPs were diluted in reaction buffer to give fluorescence values of 5000-20000 counts in the “enzyme only wells” 20 min after addition of substrate at 27° C. Reaction buffers were 25 mM (2-(4-Morpholino)-Ethane Sulfonic Acid), pH 5.5 for DPP-VII, 25 mM Tris, pH 8, 1% Triton X-100, 100 mM NaCl for DPP-VIII, and 25 mM Tris pH 8 for DPP-1× and FAP. Test wells in a 96-well microtiter plate contained 88 μL of diluted DPP and 2.5 ul of titrated compound in 50 mM glycine, pH 2.6. “Enzyme only” wells contained 88 uL of diluted DPP and 2.5 ul of glycine buffer. “No enzyme” wells contained 88 uL of reaction buffer without DPP and 2.5 ul of glycine buffer. All assays were done in triplicate. The plate was incubated at 27° C. for 10 min and then cooled on ice for 10 min. Ten microliters of substrate diluted in reaction buffer (40 uM final concentration) without Triton or NaCl were then added to all wells followed by incubation at 27C for 20 min. Substrates were Lys-Pro AMC for DPP-VII, and Ala-Pro AMC for DPP-VIII, DPP-IX, and FAP. Fluorescence in each well was measured at settings of 380/460 nm.

[2] = target: T2, DPP-VIII (Homo sapiens, UniProt Q6V1X1); test: DPP-VIII IC50 assay (Ala-Pro AMC), selectivity versus DPP-IV; assay type: biochemical; settings: IC50 of DPP-VIII divided by IC50 for DPP-IV
T2 construct: The full length cDNAs for human DPP-VII, DPP-VIII, DPP-IX, and FAP were obtained from Open Biosystems; 6xHis (C); made in house
Description: as §1, §2

[3] = target: T3, FAP (Homo sapiens, UniProt Q12884); test: FAP IC50 assay (Ala-Pro AMC), selectivity versus DPP-IV; assay type: biochemical; settings: IC50 of FAP divided by IC50 for DPP-IV
T3 construct: The full length cDNAs for human DPP-VII, DPP-VIII, DPP-IX, and FAP were obtained from Open Biosystems; 6xHis (N); made in house
T3 sequence (Q12884 1-760): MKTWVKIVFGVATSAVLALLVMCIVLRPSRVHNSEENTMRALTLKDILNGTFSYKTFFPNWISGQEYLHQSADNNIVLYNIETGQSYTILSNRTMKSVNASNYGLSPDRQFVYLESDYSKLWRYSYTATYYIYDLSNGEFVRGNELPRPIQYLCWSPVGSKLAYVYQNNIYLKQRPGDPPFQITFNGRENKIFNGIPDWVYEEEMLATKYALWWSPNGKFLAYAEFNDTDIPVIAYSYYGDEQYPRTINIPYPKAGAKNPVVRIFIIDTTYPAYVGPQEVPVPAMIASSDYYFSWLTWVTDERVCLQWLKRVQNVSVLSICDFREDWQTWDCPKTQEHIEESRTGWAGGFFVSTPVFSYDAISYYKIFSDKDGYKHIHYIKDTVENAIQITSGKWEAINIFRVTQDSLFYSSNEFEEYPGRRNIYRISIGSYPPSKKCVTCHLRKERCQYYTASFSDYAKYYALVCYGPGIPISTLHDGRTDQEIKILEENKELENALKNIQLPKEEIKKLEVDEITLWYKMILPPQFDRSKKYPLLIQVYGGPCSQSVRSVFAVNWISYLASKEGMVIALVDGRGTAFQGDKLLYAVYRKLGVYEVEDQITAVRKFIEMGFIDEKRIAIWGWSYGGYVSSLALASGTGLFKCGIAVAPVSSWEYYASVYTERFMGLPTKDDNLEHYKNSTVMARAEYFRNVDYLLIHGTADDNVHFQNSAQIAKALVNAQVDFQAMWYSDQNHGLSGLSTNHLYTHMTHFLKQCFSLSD
Description: as §1, §2

[4] = system: Zucker Obese Fatty rats; test: Toxicity in rats, oral dosing; assay type: in vivo, rat; settings: 1 mg/kg, 4-24 hrs post-dose, all Zucker Obese Fatty rats tested
Description: Toxicity in Rats: The Zucker Diabetic Fatty (ZDF) rat model can be used to investigate the effects of the compounds of the invention on both the treatment and prevention of diabetes as rats of this sub-strain are initially pre-diabetic although they develop severe type 2 diabetes characterized by increased HbAl c levels over a period of 6 weeks. The same strain can be used to predict the clinical efficacy of other anti-diabetic drug types. For example, the model predicts the potency and limited clinical efficacy of thiazolidinedione insulin sensitizer compounds. The experimental protocol requires p.o. (oral gavage) administration of either vehicle or test article at indicated doses either QD or BID using a gastric feeding needle with a ball tip, without anesthesia, using hand restraint to adult rats which have been fasted overnight. Animals are monitored for clinical signs at 1, 2, 4 and 8 hour time intervals following the treatment regimen. Whole blood samples (to a maximum level of 10% of the total blood volume every 2 weeks) were collected from the animals from the retro-orbital sinus in accordance with the guidelines of the IACUC committee.
The expected therapeutic dose level could not be reached for the comparative compounds before acute toxicity was observed.

T2 sequence (Q6V1X1 whole entry): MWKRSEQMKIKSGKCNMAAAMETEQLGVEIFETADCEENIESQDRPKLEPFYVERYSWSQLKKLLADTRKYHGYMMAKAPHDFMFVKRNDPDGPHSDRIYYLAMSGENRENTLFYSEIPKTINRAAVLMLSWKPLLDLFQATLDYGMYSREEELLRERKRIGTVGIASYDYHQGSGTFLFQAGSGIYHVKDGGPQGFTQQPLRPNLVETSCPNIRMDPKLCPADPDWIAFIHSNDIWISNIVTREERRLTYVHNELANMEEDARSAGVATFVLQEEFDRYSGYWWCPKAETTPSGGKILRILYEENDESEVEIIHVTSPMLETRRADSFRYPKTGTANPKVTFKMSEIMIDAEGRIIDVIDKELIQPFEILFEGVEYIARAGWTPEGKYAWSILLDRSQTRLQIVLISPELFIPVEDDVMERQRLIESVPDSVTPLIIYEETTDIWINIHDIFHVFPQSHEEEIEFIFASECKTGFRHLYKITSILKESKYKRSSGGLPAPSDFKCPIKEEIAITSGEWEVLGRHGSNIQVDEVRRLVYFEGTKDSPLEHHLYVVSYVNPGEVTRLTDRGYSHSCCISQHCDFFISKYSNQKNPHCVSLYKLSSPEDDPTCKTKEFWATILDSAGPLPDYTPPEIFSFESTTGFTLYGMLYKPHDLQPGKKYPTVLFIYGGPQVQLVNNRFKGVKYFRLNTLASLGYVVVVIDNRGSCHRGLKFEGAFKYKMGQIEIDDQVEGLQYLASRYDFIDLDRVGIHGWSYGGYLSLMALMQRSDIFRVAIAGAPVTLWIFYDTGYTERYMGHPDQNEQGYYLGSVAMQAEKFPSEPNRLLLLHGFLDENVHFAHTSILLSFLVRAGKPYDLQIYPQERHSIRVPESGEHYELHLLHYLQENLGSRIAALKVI

N[C@@H]1CN(S(=O)(=O)c2cccc3ccccc23)CC[C@H]1C(=O)N1CCC[C@H]1B(O)O [Compound 14, (2R)-1-[(3R,4R)-4-amino-1-(naphthalene-1-sulfonyl)-piperidine-3-carbonyl]-boroPro-OH]
Selectivity Ratios DPP-VII [1]: C (10 < C ≦ 50)
Selectivity Ratios DPP-VIII [2]: C (10 < C ≦ 50)
Selectivity Ratios FAP [3]: C (10 < C ≦ 50)

Cl.O=C(CN[C@@H]1CCCNC1)N1CCC[C@H]1B(O)O [Compound 21, reference compound]
Selectivity Ratios DPP-VII [1]: A (A ≦ 1)
Selectivity Ratios DPP-VIII [2]: B (1 < B ≦ 10)
Selectivity Ratios FAP [3]: C (10 < C ≦ 50)

N[C@@H]1CCN(S(=O)(=O)c2cccc(F)c2)C[C@H]1C(=O)N1CCC[C@H]1B(O)O [Compound 9, (2R)-1-[(3R,4R)-4-amino-1-(3-fluoro-benzenesulfonyl)-piperidine-3-carbonyl]-boroPro-OH]
Selectivity Ratios DPP-VII [1]: E (E > 100)
Selectivity Ratios DPP-VIII [2]: D (50 < D ≦ 100)
Selectivity Ratios FAP [3]: D (50 < D ≦ 100)

N[C@@H]1CCN(S(=O)(=O)c2cc(F)c(F)cc2F)C[C@H]1C(=O)N1CCC[C@H]1B(O)O [Compound 12, (2R)-1-[(3R,4R)-4-amino-1-(2,4,5-trifluoro-benzenesulfonyl)-piperidine-3-carbonyl]-boroPro-OH]
Selectivity Ratios DPP-VII [1]: C (10 < C ≦ 50)
Selectivity Ratios DPP-VIII [2]: C (10 < C ≦ 50)
Selectivity Ratios FAP [3]: C (10 < C ≦ 50)

N[C@@H]1CCN(S(=O)(=O)c2cccc(-c3ccccc3)c2)C[C@H]1C(=O)N1CCC[C@H]1B(O)O [Compound 17, (2R)-1-[(3R,4R)-4-amino-1-(biphenyl-3-sulfonyl)-piperidine-3-carbonyl]-boroPro-OH]
Selectivity Ratios DPP-VII [1]: C (10 < C ≦ 50)
Selectivity Ratios DPP-VIII [2]: E (E > 100)
Selectivity Ratios FAP [3]: C (10 < C ≦ 50)

N[C@@H]1CCN(S(=O)(=O)c2ccc(F)cc2)C[C@H]1C(=O)N1CCC[C@H]1B(O)O [Compound 8, (2R)-1-[(3R,4R)-4-amino-1-(4-fluoro-benzenesulfonyl)-piperidine-3-carbonyl]-boroPro-OH]
Selectivity Ratios DPP-VII [1]: E (E > 100)
Selectivity Ratios DPP-VIII [2]: D (50 < D ≦ 100)
Selectivity Ratios FAP [3]: D (50 < D ≦ 100)

N[C@@H]1CCN(S(=O)(=O)c2ccc(-c3ccccc3)cc2)C[C@H]1C(=O)N1CCC[C@H]1B(O)O [Compound 16, (2R)-1-[(3R,4R)-4-amino-1-(biphenyl-4-sulfonyl)-piperidine-3-carbonyl]-boroPro-OH]
Selectivity Ratios DPP-VII [1]: E (E > 100)
Selectivity Ratios DPP-VIII [2]: E (E > 100)
Selectivity Ratios FAP [3]: C (10 < C ≦ 50)

CC(C)S(=O)(=O)N1CC[C@@H](N)[C@H](C(=O)N2CCC[C@H]2B(O)O)C1 [Compound 18, (2R)-1-[(3R,4R)-4-amino-1-(propane-2-sulfonyl)-piperidine-3-carbonyl]-boroPro-OH]
Selectivity Ratios DPP-VII [1]: C (10 < C ≦ 50)
Selectivity Ratios DPP-VIII [2]: C (10 < C ≦ 50)
Selectivity Ratios FAP [3]: D (50 < D ≦ 100)

N[C@@H]1CCN(S(=O)(=O)c2ccccc2)C[C@H]1C(=O)N1CCC[C@H]1B(O)O [Compound 6, (2R)-1-[(3R,4R)-4-amino-1-Benzenesulfonyl-piperidine-3-carbonyl]-boroPro-OH]
Selectivity Ratios DPP-VII [1]: E (E > 100)
Selectivity Ratios DPP-VIII [2]: D (50 < D ≦ 100)
Selectivity Ratios FAP [3]: E (E > 100)

CS(=O)(=O)c1ccc(S(=O)(=O)N2CC[C@@H](N)[C@H](C(=O)N3CCC[C@H]3B(O)O)C2)cc1 [Compound 13, (2R)-1-[(3R,4R)-4-amino-1-(4-methanesulfonyl-benzenesulfonyl)-piperidine-3-carbonyl]-boroPro-OH]
Selectivity Ratios DPP-VII [1]: E (E > 100)
Selectivity Ratios DPP-VIII [2]: D (50 < D ≦ 100)
Selectivity Ratios FAP [3]: E (E > 100)

N[C@@H]1CCN(S(=O)(=O)c2ccc(F)cc2F)C[C@H]1C(=O)N1CCC[C@H]1B(O)O [Compound 11, (2R)-1-[(3R,4R)-4-amino-1-(2,4-difluoro-benzenesulfonyl)-piperidine-3-carbonyl]-boroPro-OH]
Selectivity Ratios DPP-VII [1]: E (E > 100)
Selectivity Ratios DPP-VIII [2]: D (50 < D ≦ 100)
Selectivity Ratios FAP [3]: E (E > 100)

O=C(CNC1CCNCC1)N1CCC[C@H]1B(O)O [Compound 20, reference compound]
Selectivity Ratios DPP-VII [1]: A (A ≦ 1)
Selectivity Ratios DPP-VIII [2]: B (1 < B ≦ 10)
Selectivity Ratios FAP [3]: E (E > 100)

CC(C)[C@H](N)C(=O)N1CCC[C@H]1B(O)O [PT100]
acute toxicity in rats [4]: acute toxicity (death)

N[C@@H]1CCN(S(=O)(=O)c2ccccc2F)C[C@H]1C(=O)N1CCC[C@H]1B(O)O [Compound 10, (2R)-1-[(3R,4R)-4-amino-1-(2-fluoro-benzenesulfonyl)-piperidine-3-carbonyl]-boroPro-OH]
Selectivity Ratios DPP-VII [1]: E (E > 100)
Selectivity Ratios DPP-VIII [2]: C (10 < C ≦ 50)
Selectivity Ratios FAP [3]: D (50 < D ≦ 100)

CS(=O)(=O)N1CC[C@@H](N)[C@H](C(=O)N2CCC[C@H]2B(O)O)C1 [Compound 7, (2R)-1-[(3R,4R)-4-amino-1-methanesulfonyl-piperidine-3-carbonyl]-boroPro-OH]
Selectivity Ratios DPP-VII [1]: E (E > 100)
Selectivity Ratios DPP-VIII [2]: C (10 < C ≦ 50)
Selectivity Ratios FAP [3]: E (E > 100)
